Experimental data: patent publication US10774115B2, “Modified Fab region-binding peptide” (Kaneka Corporation, priority 2015, dated 2020)

Columns and labels:
aTNF-Fab [1] = test: Affinity of modified SpG-β1# for aTNF-Fab by surface plasmon resonance (Biacore 3000); details: aTNF-Fab immobilized on CM5 sensor tip, 25° C., pH 7.4, 1:1 binding model
Experimental: A humanized monoclonal IgG product as a raw material was fragmented into a Fab fragment and a Fc fragment using papain, and only the Fab fragment was separated and purified. Specifically, anti-human TNFα monoclonal IgG (generic name: “Infliximab”, product name: “Remicade” manufactured by Mitsubishi Tanabe Pharma Corporation) was dissolved in a buffer for papain treatment (0.1 M AcOH—AcONa, 2 mM EDTA, 1 mM cysteine, pH 5.5), and agarose on which papain was immobilized (“Papain Agarose from papaya latex” manufactured by SIGMA) was added thereto. The mixture was incubated with stirring by a rotator at 37° C. for about 8 hours. The IgG-Fab was purified by recovering as a flow-through fraction in an affinity chromatography using MabSelect SuRe column (GE Healthcare Bioscience) from the reaction mixture which contained both of a Fab fragment and a Fc fragment and which was separated from the agarose on which papain was immobilized. The obtained IgG-Fab solution was subjected to purification by gel filtration chromatography using Superdex 75 10/300 GL column to obtain the solution of IgG-Fab (aTNF-Fab). In the chromatography, the standard buffer was used for equilibration and separation. Similarly to the above-described Example 1, AKTAprime plus system was used in the chromatography for peptide purification.
The affinity of each various modified SpG-β1# obtained in the above Example 1(2) for aTNF-Fab was evaluated using a biosensor Biacore 3000 (GE Healthcare Bioscience) utilizing surface plasmon resonance. In the present Example, the aTNF-Fab obtained in the above Example 2(1) was immobilized on a sensor tip, and each of the peptide was flown on the tip to detect the interaction between the two. The aTNF-Fab was immobilized on a sensor tip CM5 by amine coupling method using N-hydroxysuccinimide (NHS) and N-ethyl-N′-(3-dimethylaminopropyl)carbodiimide hydrochloride (EDC), and ethanolamine was used for blocking. All of the sensor tip and reagents for immobilization were manufactured by GE Healthcare Bioscience. The aTNF-Fab solution was diluted about 10 times using a buffer for immobilization (10 mM AcOH—AcONa, pH 4.5), and the aTNF-Fab was immobilized on the sensor tip in accordance with the protocol attached to the Biacore 3000. In addition, a reference cell as negative control was also prepared by activating another flow cell on the tip with EDC/NHS, immobilizing nothing and blocking with ethanolamine. Peptide solutions of each various modified SpG-β1# having concentrations of 0.01, 0.1, 1 or 10 μM were prepared using a running buffer (20 mM NaH2PO4—Na2HPO4, 150 mM NaCl, 0.005% P-20, pH 7.4). The peptide solution was added to the sensor tip in a flow rate of 40 μL/min for 1 minute. Bonding response curves at the time of addition (association phase, for 1 minute) and after the addition (dissociation phase, for 1 minute) were sequentially obtained at a measurement temperature of 25° C. After each measurement, the cells were washed using about 20 mM NaOH. The bonding response curve obtained by subtracting the bonding response curve of the reference cell was subjected to fitting analysis by a binding model of 1:1 using a software BIA evaluation attached to the system, and affinity constant (KA=kon/koff) to aTNF-Fab was calculated. The result is shown in Table 2 with each binding parameter of GB1#-Cont.1d, which parameter was measured in Comparative Example 2.
An affinity of GB1#-Cont.1d prepared in Comparative example 1 for aTNF-Fab prepared in Example 2(1) was evaluated similarly to the procedure of Example 2(2).

aTNF-Fab [2] = test: Acid dissociation pH by pH linear gradient chromatography on aTNF-Fab-immobilized column; type: binding; details: for Dissociation pH (pH at elution peak top): pH linear gradient from pH 5.5 to pH 2.5; for elution position in pH gradient compared with peptide without mutation: Table 3 and FIG. 2
Experimental: An affinity separation matrix on which aTNF-Fab obtained in the above Example 2 was immobilized was prepared by using a commercially available coupling column for immobilizing a ligand. The column has an amino group as a functional group for coupling.
As a water-insoluble carrier, 1 mL of a commercially available prepacked column (“Hitrap NHS activated HP” manufactured by GE Healthcare Bioscience) was used. The column contains a crosslinked agarose as a base material and an amino group is introduced as an active functional group for immobilizing a protein ligand, and a ligand was immobilized in accordance with the product manual. Specifically, 2 mL of ice-cooled 1 mM HCl was flown at a rate of 1 mL/min repeatedly three times to remove isopropanol in the column.
Then, 1 mL of a 1 mg/mL aTNF-Fab solution in a coupling buffer (0.2 MNaHCO3, 0.5 MNaCl, pH 8.3) was immediately flown at the same rate. The top and bottom of the column were stoppled, and the column was stood still at 25° C. for 30 minutes to immobilize the obtained ligand on the column.
Then, the column was opened, and 3 mL of the coupling buffer was flown at the same rate to recover the unreacted aTNF-Fab. Next, 2 mL of a blocking buffer (0.5 M ethanolamine, 0.5 M NaCl, pH 8.3) was flown repeatedly three times and 2 mL of a washing buffer (0.1 M acetic acid, 0.5 M NaCl, pH 4.0) was flown three times. Each of the above-described procedure to flow the blocking buffer and washing buffer were performed three times one after the other. Finally, 2 mL of a standard buffer (20 mM NaH2PO4—Na2HPO4, 150 mM NaCl, pH 7.4) was flown to complete the preparation of an affinity separation matrix.
By affinity purification chromatography using aTNF-Fab-immobilized column prepared in Example 3(1), an acid dissociation pH at which each modified SpG-β1# prepared in Example 1 (2) was eluted and which corresponded to the peak top of an elution curve of the modified SpG-β1# was measured. Specifically, AKTAprime plus system was used as a chromatography system. The column was equilibrated using ion exchange buffer A (50 mM citric acid-citrate Na, pH 5.5). Into the column, 0.1 mL of a protein solution containing each modified SpG-β1# in the concentration of about 0.1 mg/mL was added, and the protein was eluted with the pH linear gradient from pH 5.5 to pH 2.5. More specifically, the ion exchange buffer A and ion exchange buffer B (50 mM AcOH—AcONa, 1 M NaCl, pH 2.5) were used. […] The pH value which was specified in the experiment as the value corresponding to each elution peak top is shown in Table 3 in addition to the result of Comparative example 3.
An acid dissociation pH of GB1#-Cont.1d prepared in Comparative example 1 was measured using aTNF-Fab-immobilized carrier prepared in Example 3(1) similarly to the procedure of Example 3(2).

Substance	KA (affinity constant, KA=kon/koff) (aTNF-Fab [1])	koff (aTNF-Fab [1])	kon (aTNF-Fab [1])	Dissociation pH (pH at elution peak top) (aTNF-Fab [2])	elution position in pH gradient compared with peptide without mutation (aTNF-Fab [2])
GB1#-Cont.1d: modified SpG-β1 of SEQ ID NO: 1 with improved binding capability to Fab; peptide before substitution mutation, Comparative example (TTYKLILNGKTLTGYTTAIAADAATAEIVLKQFANDNGIDGEWTYDDATKTFTVTE; Immunoglobulin-binding peptide) [reference compound]	2.45 ×10^6 [M^−1]	1.70 ×10^−2 [s^−1]	4.17 ×10^4 [M^−1s]	2.60	
GB1#-D36V.1d: modified SpG-β1# single domain with mutation D36V; amino acid SEQ ID NO: 19 (TTYKLILNGKTLTGYTTAIAADAATAEIVLKQFANVNGIDGEWTYDDATKTFTVTE; GB1#-mutant)	0.51 ×10^6 [M^−1]	6.40 ×10^−2 [s^−1]	3.28 ×10^4 [M^−1s]	3.40	eluted earlier than GB1#-Cont.1d
GB1#-T17A.1d: modified SpG-β1# single domain, SEQ ID NO: 1 with Thr at 17th position substituted by Ala; amino acid SEQ ID NO: 17 (TTYKLILNGKTLTGYTAAIAADAATAEIVLKQFANDNGIDGEWTYDDATKTFTVTE; GB1#-mutant)	0.88 ×10^6 [M^−1]	2.85 ×10^−2 [s^−1]	2.50 ×10^4 [M^−1s]	2.85	eluted earlier than GB1#-Cont.1d
GB1#-T17V.1d: modified SpG-β1# single domain with mutation T17V; amino acid SEQ ID NO: 18 (TTYKLILNGKTLTGYTVAIAADAATAEIVLKQFANDNGIDGEWTYDDATKTFTVTE; GB1#-mutant)	0.57 ×10^6 [M^−1]	3.35 ×10^−2 [s^−1]	1.91 ×10^4 [M^−1s]	3.00	eluted earlier than GB1#-Cont.1d
